Measured values as given in patent US20060045847A1, “Method for determination of anabolic activity” (priority 2004, published 2006).
Read-outs that look alike come from different tables or passages of the source.

Columns and labels:
[1] = molecular target: T1, human androgen receptor (Homo sapiens, UniProt P10275); assay: Androgen receptor (AR) binding assay, displacement of [3H]R1881 (hydroxylapatite method)
T1 construct: expressed in transfected cells; host or cells: HEK-293 cells stably transfected with the pCMV neo-hAR plasmid; the 105 000 x g cytosol was used
T1 sequence (P10275 1-920): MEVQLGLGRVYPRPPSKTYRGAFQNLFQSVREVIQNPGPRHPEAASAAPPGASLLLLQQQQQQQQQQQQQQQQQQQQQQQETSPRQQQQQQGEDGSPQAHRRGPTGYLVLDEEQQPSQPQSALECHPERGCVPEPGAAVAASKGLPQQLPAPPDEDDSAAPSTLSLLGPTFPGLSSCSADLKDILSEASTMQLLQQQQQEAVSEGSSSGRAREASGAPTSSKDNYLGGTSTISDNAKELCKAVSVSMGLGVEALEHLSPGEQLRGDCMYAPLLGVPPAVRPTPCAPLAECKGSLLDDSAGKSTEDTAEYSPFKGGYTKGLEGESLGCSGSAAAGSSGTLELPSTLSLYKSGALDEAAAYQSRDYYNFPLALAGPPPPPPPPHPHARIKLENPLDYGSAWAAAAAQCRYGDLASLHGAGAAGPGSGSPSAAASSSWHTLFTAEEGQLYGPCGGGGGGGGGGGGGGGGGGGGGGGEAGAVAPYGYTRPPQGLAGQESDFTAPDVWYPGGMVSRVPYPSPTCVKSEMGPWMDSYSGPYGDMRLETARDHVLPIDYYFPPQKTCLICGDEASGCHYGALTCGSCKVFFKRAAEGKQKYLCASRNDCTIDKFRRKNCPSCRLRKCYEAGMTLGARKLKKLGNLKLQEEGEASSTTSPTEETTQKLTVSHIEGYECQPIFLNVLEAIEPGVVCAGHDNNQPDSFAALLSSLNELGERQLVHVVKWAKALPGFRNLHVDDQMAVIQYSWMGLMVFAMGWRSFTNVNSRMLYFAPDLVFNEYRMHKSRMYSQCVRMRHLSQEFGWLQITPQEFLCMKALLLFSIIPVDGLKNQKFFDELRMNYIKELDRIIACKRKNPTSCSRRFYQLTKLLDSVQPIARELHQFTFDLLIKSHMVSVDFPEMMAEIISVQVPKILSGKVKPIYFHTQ
Method: The incubation was performed with 3 nM [^3H]R1881 for 16 h at 0-4° C. in the presence or absence of the indicated concentrations of unlabeled compounds.
Androgen Receptor (AR) Assay
Preparation of Human Embryonic Kidney (HEK-293) cells stably Transfected with Human AR (hAR): The pCMV neo-hAR plasmid [Huang, X.-F. and V. Luu-The, Modulation of the androgenic response by recombinant human 11-cis retinol dehydrogenase. J. Steroid Biochem., 2001. 77(2-3): p. 129-133] was transfected into HEK-293 cells using lipofectin transfection kit (Life Technologies, Ontario, Canada), and cells resistant to G418 were isolated as previously described [Dufort, I., et al., Characteristics of a highly labile human type 5 17beta-hydroxysteroid dehydrogenase. Endocrinology, 1999. 140(2): p. 568-574]. On the morning of the binding assay, a pellet of HEK-293 hAR cells was thawed, suspended in buffer, sonicated and centrifuged at 105 000×g for 90 min. The androgen binding assay was performed with the hydroxylapatite (HAP) method [Martel, C., et al., Binding characteristics of novel nonsteroidal antiestrogens to the rat uterine estrogen receptors. J. Steroid Biochem. Mol. Biol., 1998. 64: p. 199-205] using HEK-293 hAR cell cytosol preparation (0.1 ml) and 3 nM [^3H]R1881.

[2] = system: androgen-sensitive genes in levator ani muscle, gastrocnemius muscle and prostate; assay: Microarray gene expression profile in tissues of GDX mice, genes modulated in common with DHT; format: in vivo, mouse; conditions: s.c. 0.5 mg THG vs 0.1 mg DHT, 0.5 h to 7 days
Description: The genes selected were those identified in common according to the Affymetrix, MAS 5.0 and RMA program [Gautier, L., et al., affy—analysis of Affymetrix GeneChip data at the probe level. Bioinformatics, 2004. 20(3): p. 307-15]. Color scale representing days of fold change due to treatments is shown below the figure.
The selected genes were clustered by Euclidean distance. Columns represents each one of the 790 selected gene and each row a particular treatement group. A pseudo-colored representation of relative intensity is shown such that red indicates high, blue low and yellow unchanged expression, with scale shown at the right.
In the prostate, on the other hand, the classical androgen-sensitive tissue [Labrie, C., A. Bélanger, and F. Labrie, Androgenic activity of dehydroepiandrosterone and androstenedione in the rat ventral prostate. Endocrinology, 1988. 123: p.
Animals weighing between 24.0 and 32.4 g (mean=28.2 g) were randomized according to body weight and were assigned to nineteen groups of 10 animals each. On day 1 of the study, animals were castrated (GDX) under isoflurane anesthesia. All animals were sacrificed 7 days after GDX. […] A GDX-vehicle injected group were used as a control. Eight intact mice of the same strain, age and body weight were sacrificed as described above and tissues were collected, weighed and discarded. The mice sacrificed 2, 4 and 7 days after starting treatment received daily injection of the steroids and were sacrificed 24 h after last injection under isoflurane anesthesia and exsanguinated via cardiac puncture. […]
RNA extraction and microarrays tissues were snap-frozen in liquid nitrogen and kept at −80° C. prior to RNA extraction. […] Scanned images were analyzed with Affymetrix GCOS v1.1 software and with GeneSpring 6.1 software (Silicon Genetics, Redwood City, Calif.) as described [Vasseur, S., et al., Gene expression profiling by DNA microarray analysis in mouse embryonicfibroblasts transformed by rasV12 mutated protein and the E1A oncogene. […]

[3] = system: mouse prostate; assay: Preliminary experiment: stimulation of mouse prostate weight, potency relative to DHT; format: in vivo; conditions: data not shown
Description: We next used the best recognized in vivo assay to assess the in vivo activity of THG [Labrie, C., A. Bélanger, and F. Labrie, Androgenic activity of dehydroepiandrosterone and androstenedione in the rat ventral prostate. Endocrinology, 1988. 123: p. 1412-1417]. […] Similar observations were made for the preputial gland. The levator ani is an androgen-sensitive muscle [Boissonneault, G., et al., Depressed translational activity in the androgen sensitive levator ani muscle of the rat. J Steroid Biochem, 1989. 32(4): p. 507-13] which has long been recognized as a myotropic marker of the androgenic/anabolic activity of steroids [Eisenberg, S., R. Buie, Jr., and L. Tobian, Jr., Adrenal cortical function in essential hypertension; a study of sweat sodium concentration. Am J Med Sci, 1950. 220(3): p. 287-9].

[4] = system: gonadectomized (GDX) male C57BL6 mice; assay: 7-day daily s.c. treatment, androgen-sensitive tissue weights in gonadectomized mice; format: in vivo, mouse; conditions: daily s.c. 7 days, DHT 0.1 mg or THG 0.5 mg; for levator ani muscle weight: versus intact animals; for prostate weight: versus intact controls
Description: We next used the best recognized in vivo assay to assess the in vivo activity of THG [Labrie, C., A. Bélanger, and F. Labrie, Androgenic activity of dehydroepiandrosterone and androstenedione in the rat ventral prostate. Endocrinology, 1988. 123: p. 1412-1417]. […] The levator ani is an androgen-sensitive muscle [Boissonneault, G., et al., Depressed translational activity in the androgen sensitive levator ani muscle of the rat. J Steroid Biochem, 1989. 32(4): p. 507-13] which has long been recognized as a myotropic marker of the androgenic/anabolic activity of steroids [Eisenberg, S., R. Buie, Jr., and L. Tobian, Jr., Adrenal cortical function in essential hypertension; a study of sweat sodium concentration. Am J Med Sci, 1950. 220(3): p. 287-9].
Eleven- to twelve-week-old male C57BL6 mice obtained from Harlan (Indianapolis, Ind.) were allowed to acclimate for 2 weeks. The animals were housed individually in an environmentally-controlled room (temperature: 22±3° C.; humidity: 50±20%; 12-h light-12-h dark cycles, lights on at 07:15 h). The mice had free access to tap water and a certified rodent feed (Lab Diet 5002 (pellet), Ralston Purina, St-Louis, Mo.). The experiment was conducted in an animal facility approved by the Canadian Council on Animal Care (CCAC) and the Association for Assessment and Accreditation of Laboratory Animal Care (AAALAC). The study was performed in accordance with the CCAC Guide for Care and Use of Experimental Animals.
Animals weighing between 24.0 and 32.4 g (mean=28.2 g) were randomized according to body weight and were assigned to nineteen groups of 10 animals each. On day 1 of the study, animals were castrated (GDX) under isoflurane anesthesia. All animals were sacrificed 7 days after GDX. […] A GDX-vehicle injected group were used as a control. Eight intact mice of the same strain, age and body weight were sacrificed as described above and tissues were collected, weighed and discarded. The mice sacrificed 2, 4 and 7 days after starting treatment received daily injection of the steroids and were sacrificed 24 h after last injection under isoflurane anesthesia and exsanguinated via cardiac puncture. The prostate (ventral+dorsal), seminal vesicles, preputial glands as well as gastrocnemius and levator ani muscle were collected, freed from adhering tissue or fluid and weighed.

Row | SMILES | relative potency to displace [3H]R1881 from the human AR ([1]; 3 nM [3H]R1881, 16 h at 0-4° C., HEK-293 hAR cell cytosol, THG = 1.0) | number of genes commonly modulated by DHT and THG in gastrocnemius muscle [2] [genes] | number of genes commonly modulated by DHT and THG in levator ani muscle [2] [genes] | number of genes commonly modulated by DHT and THG in prostate [2] [genes] | potency relative to DHT as stimulator of the weight of the mouse prostate [3] [%] | preputial gland weight [4] | seminal vesicle weight [4] | levator ani muscle weight [4] | prostate weight [4] | relative potency to displace [3H]R1881 from the human AR [1]
1 | CC[C@]1(O)CC[C@H]2[C@@H]3CCC4=CC(=O)CCC4=C3C=C[C@@]21CC [THG, tetrahydrogestrinone] | 1.0 | 112 | 790 | 1121 | 20 | completely reversed the GDX-induced atrophy | completely reversed the GDX-induced atrophy | increased weight of levator ani to values not different from intact animals | reversed the effect of GDX, to a value not statistically different from intact controls | –
2 | C[C@]1(O)CC[C@H]2[C@@H]3CCC4=CC(=O)CCC4=C3C=C[C@@]21C [R1881, methyltrienolone, reference compound] | – | – | – | – | – | – | – | – | – | 0.72
3 | C[C@]12CCC(=O)C[C@@H]1CC[C@@H]1[C@@H]2CC[C@]2(C)[C@@H](O)CC[C@@H]12 [DHT, dihydrotestosterone, reference compound] | – | – | – | – | – | completely reversed the GDX-induced atrophy | completely reversed the GDX-induced atrophy | increased weight of levator ani to values not different from intact animals | completely reversed the GDX-induced atrophy of the prostate | –
